Consider two compounds from paper PMC5811539, “Expression, Purification and Characterization of the Human Cannabinoid 1 Receptor” (Scientific Reports, 2018).

In test [1] the test system is hΔCB1. Also noted: method as in unpublished results. The following applies: HEK293 cells; ref unpublished results; cited from earlier work.
Test [2] concerns T1, hΔCB1 receptor.
T1 construct: hCB1 receptor with an N-terminal 102 amino acid truncated residues (hΔCB1); host or cells: cell-free expression with nanodiscs
The experiment in a line: Saturation binding assays (filtration and size-exclusion) with cell-free expressed hΔCB1. Details: species or system human. Conditions: cell-free expressed from pET15hΔCB1his6 and pET26shΔCB1his6, with nanodiscs, no T4 lysozyme. The method, then:
The radioactive binding assays were performed with [^3H] CP-55,940 radioligand.
On the technique in general: SEC sorts molecules by how far they enter the pores of the column.

For the compound `CCCCCCC(C)(C)c1ccc([C@@H]2C[C@H](O)CC[C@H]2CCCO)c(O)c1` [CP-55,940], the “effect of N-terminal 102 amino acid truncation on binding” value in test [1] is “truncation does not affect the binding”.
For the compound `CCCCCCC(C)(C)c1ccc([C@@H]2C[C@H](O)CC[C@H]2CCCO)c(O)c1` [[^3H] CP-55,940], the specific binding entry in test [2] is “did not show any specific binding”.
